For the assay, the system named is WBCs from whole blood. The assay is described as follows: DLD assay: WBC biophysical profiling (size Dapp, deformability CDMdot) after in vitro activation of whole blood. In kind it is cell-based. The note with it: for WBC Dapp (average of L and L^-1 DLD assays): 2 hours incubation, undiluted whole blood at 37° C., 2.5 μL/min, n=5, healthy baseline 9.7±0.1 μm; for increase in WBC Dapp: 2 hours, versus healthy baseline. How it is done: The open reservoirs 102A, 102B and 102C facilitate easy sample loading, sample resuspension to prevent settling of cells and washing the reservoir to reuse the device. The required loaded volume per run is 10 μL and the reservoir can hold up to 25 μL of blood. As the fluid is withdrawn, the sample flows through a region comprising 21 DLD device segments sandwiched between two 1× phosphate-buffered saline (PBS) buffer streams (see Table 2). Each segment comprises an array of pillars and has a specific DLD critical cut-off size (Dc) determined by the empirical Equation (1): […]
where G is the regular spacing between pillars and θ is the gradient of the pillar array. This design is known as a chirped DLD array where each downstream segment has an increasing pillar row-shift gradient corresponding to an increasing Dc ranging from 6.0 to 16.0 μm in steps of 0.5 μm (see Methods). Immune cells flowing through the device 100 are deflected laterally only within DLD segments where cell sizes are larger than Dc; the cells therefore exit the device 100 at defined lateral positions depicted in the output region shown in FIG. 1A. The output of the sorting forms a spectrum in its size distribution (i.e., a biophysical parameter based on a distribution profile of the cells sorted by the array of pillars).
To evaluate the biophysical combinatorial immune profiling potential of DLD assay, a single biophysical size and deformability parameter is determined. For size parameters, the average Dapp for L and L^−1 assays was quantified at 2.5 μL/min, while a single cell deformability parameter (CDMdot) was emphasized by taking the product of the CDML and CDML^−1 measurements. Performing a product amplifies the deformability differences compared to CDML and CDML^−1 measurements individually (see FIG. 8). By combining the measurements of two DLD devices, a unique leukocyte biophysical fingerprint as a profiling tool to measure different states of WBC from whole blood in real-time was envisioned (see FIG. 1B).
Direct sample measurements enable the study of WBC biophysical profiles in different health states of an individual for healthy donors, patients admitted to the ED without signs of infection (ED Control), and patients with clear signs of infection and fulfilling at least two SIRS criteria (ED≥2 SIRS) (See Table 3). The second group are tests performed on blood, which have undergone external or in vitro test conditions to activate the WBCs. These include 5 ng/ml lipopolysaccharide (LPS), which mimics the bacteria coat that would trigger inflammation and phorbol 12-myristate 13-acetate (PMA) at 100 and 1000 nM, a known activator of WBCs. […]

In the case of `CCCCCCCCCCCCCC(=O)O[C@@H]1[C@@H](C)[C@@]2(O)[C@@H](C=C(CO)C[C@]3(O)C(=O)C(C)=C[C@@H]23)[C@@H]2C(C)(C)[C@]12OC(C)=O` [PMA, phorbol 12-myristate 13-acetate], for the setting “PMA 100 nM”, the “WBC Dapp (average of L and L^-1 DLD assays)” value was found to be 12.6±0.8 μm; the “increase in WBC Dapp” value amounted to 30%. In addition, under “PMA 1000 nM”, the “WBC Dapp (average of L and L^-1 DLD assays)” value stood at 13.9±0.7 μm; the “increase in WBC Dapp” value amounted to 43%.
